Test results as given in PubChem BioAssay AID1963861 (Molecular Pharmacology Branch, DTP, NCI, 2024).

Test system: 885724-159-R-J1-PDC KRAS PDC multicell spheroid viability
Test: Anticancer human tumor 885724-159-R-J1-PDC patient-derived pancreatic adenocarcinoma cell line growth inhibition [KRAS2]
Settings: for IC50: curve of first compound; for viability, T/C: stronger effect = lower value
Source text: Multicellular complex tumor spheroid response to RAS pathway inhibitors in combination with a targeted agents in patient-derived cell lines with oncogenic KRAS variants from multiple cancer types
A high-throughput screen of multi-cell type tumor spheroids was designed to identify active combinations of targeted small molecules and KRAS pathway inhibitors. Complex spheroids include a stromal component modeled by human endothelial cells (HUVEC) and fibroblasts modeled by human mesenchymal stem cells (MSCs). The concentration ranges selected for each drug and investigational agent were based upon clinically achievable concentrations if the clinical Cmax of the agent was known.
Compounds. The drugs and investigational agents: BI-3406 (NSC825286), BAY-293 (NSC824723), batoprotafib (TNO155; NSC825523), sotorasib (AMG 510; NSC818433), MRTX1257 (NSC819558), elimusertib (BAY 1895344; NSC800525), molibresib (GSK525762; NSC774829), temuterkib (LY3214996; NSC803410), venetoclax (NSC766270), alisertib (NSC759677), olaparib (NSC753686), talazoparib (NSC767125), erdafitinib (NSC781556), ipatasertib (NSC767898), cabozantinib (NSC761068), nintedanib (NSC756659), abemaciclib (NSC768073), docetaxel (NSC628503), trametinib (NSC758246), and sapanisertib (NSC764658) were obtained from the National Cancer Institute (NCI) Developmental Therapeutics Program Chemical Repository. The FDA-approved anticancer drug set is available from the Developmental Therapeutics Program. […] The stock solutions were prepared in dimethyl sulfoxide (DMSO, Sigma-Aldrich, St. Louis, MO, cat. D2650) at 800-fold the tested concentration and stored at -70 degrees C prior to their use. All drugs and investigational agents were tested over a range starting from a high concentration at or near the clinical Cmax and decreasing in half-log increments. If the clinical Cmax for an agent had not been determined, the highest concentration tested was 10 microM.
Cell Culture. All cells were maintained in an incubator at 37 degrees C and 5% CO2 with 95% humidity. The PDC lines were cultured according to standard operating procedures established by the NCI PDMR (https://pdmr.cancer.gov/sops/default.htm). Briefly, all PDCs were thawed and cultured in Matrigel-coated flasks prepared with a working solution of 1X Ham's F-12 nutrient mix, without supplementation (Invitrogen, Waltham, MA, cat. 11765054), 100 U/mL penicillin-streptomycin (Invitrogen, cat. 15140122), and 2.5% Matrigel (Corning Inc., Corning, NY, cat. 354248) for the first three passages. All PDCs were cultured in complete DMEM/F-12 media containing advanced DMEM/F-12 (Invitrogen, cat. 12634028), 4.9% defined fetal bovine serum, heat inactivated (HyClone Laboratories Inc., Logan, UT, cat. SH30070.03HI), 389 ng/mL hydrocortisone (Sigma-Aldrich, cat. H4001), 9.7 ng/mL human EGF recombinant protein (Invitrogen, cat. PHG0313), 23.4 microg/mL adenine (Sigma-Aldrich, cat. A2786), 97.3 U/mL penicillin-streptomycin (Invitrogen, cat. 15140122), 1.9 mM L-glutamine (Invitrogen, cat. 25030081), and 9.7 microM Y-27632 dihydrochloride (Tocris Bioscience, Bristol, United Kingdom, cat. 1254). The PDCs were cultured in complete DMEM/F12 media without 9.7 microM Y-27632 dihydrochloride for at least two passages prior to the screen. The established cell line HOP-62 was cultured in RPMI 1640 medium, HEPES (Invitrogen, cat. 22400105) with 10% defined fetal bovine serum (HyClone Laboratories Inc., cat. SH30070.03) and 2 mM L-glutamine (Invitrogen, cat. 25030081). The pooled donor HUVEC were cultured in endothelial cell growth medium 2 (PromoCell, Heidelberg, Germany, cat. C-22011) and the hMSC were cultured in mesenchymal stem cell growth medium 2 (PromoCell, cat. C-28009). For all experiments, HUVEC and hMSC were used at passages </=5, while the malignant cell lines were used at passages </=15. […]

[1] = second compound 0.1 µM, first compound 0.000316 µM
[2] = second compound 0.1 µM, first compound 0.001 µM
[3] = second compound 0.1 µM, first compound 0.00316 µM
[4] = second compound 0.1 µM, first compound 0.01 µM
[5] = second compound 0.1 µM, first compound 0.0316 µM
[6] = second compound 0.1 µM, first compound 0.1 µM
[7] = second compound 0.316 µM, first compound 0.000316 µM
[8] = second compound 0.316 µM, first compound 0.001 µM
[9] = second compound 0.316 µM, first compound 0.00316 µM
[10] = second compound 0.316 µM, first compound 0.01 µM
[11] = second compound 0.316 µM, first compound 0.0316 µM
[12] = second compound 0.316 µM, first compound 0.1 µM
[13] = second compound 1 µM, first compound 0.000316 µM
[14] = second compound 1 µM, first compound 0.001 µM
[15] = second compound 1 µM, first compound 0.00316 µM
[16] = second compound 1 µM, first compound 0.01 µM
[17] = second compound 1 µM, first compound 0.0316 µM
[18] = second compound 1 µM, first compound 0.1 µM
[19] = second compound 3.16 µM, first compound 0.000316 µM
[20] = second compound 3.16 µM, first compound 0.001 µM
[21] = second compound 3.16 µM, first compound 0.00316 µM
[22] = second compound 3.16 µM, first compound 0.01 µM
[23] = second compound 3.16 µM, first compound 0.0316 µM
[24] = second compound 3.16 µM, first compound 0.1 µM
[25] = second compound 10 µM, first compound 0.000316 µM
[26] = second compound 10 µM, first compound 0.001 µM
[27] = second compound 10 µM, first compound 0.00316 µM
[28] = second compound 10 µM, first compound 0.01 µM
[29] = second compound 10 µM, first compound 0.0316 µM
[30] = second compound 10 µM, first compound 0.1 µM
[31] = second compound 0.1 µM, first compound 0.316 µM
[32] = second compound 0.1 µM, first compound 1 µM
[33] = second compound 0.1 µM, first compound 3.16 µM
[34] = second compound 0.1 µM, first compound 10 µM
[35] = second compound 0.316 µM, first compound 0.316 µM
[36] = second compound 0.316 µM, first compound 1 µM
[37] = second compound 0.316 µM, first compound 3.16 µM
[38] = second compound 0.316 µM, first compound 10 µM
[39] = second compound 1 µM, first compound 0.316 µM
[40] = second compound 1 µM, first compound 1 µM
[41] = second compound 1 µM, first compound 3.16 µM
[42] = second compound 1 µM, first compound 10 µM
[43] = second compound 3.16 µM, first compound 0.316 µM
[44] = second compound 3.16 µM, first compound 1 µM
[45] = second compound 3.16 µM, first compound 3.16 µM
[46] = second compound 3.16 µM, first compound 10 µM
[47] = second compound 10 µM, first compound 0.316 µM
[48] = second compound 10 µM, first compound 1 µM
[49] = second compound 10 µM, first compound 3.16 µM
[50] = second compound 10 µM, first compound 10 µM
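Further: spheroids exposed to agents for 7 days before readout.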

Row | Structure (SMILES) | IC50 (second compound 0.1 µM) [nM] | IC50 (second compound 0.316 µM) [nM] | IC50 (second compound 1 µM) [nM] | IC50 (second compound 3.16 µM) [nM] | IC50 (second compound 10 µM) [nM] | viability, T/C [1] [%] | viability, T/C [2] [%] | viability, T/C [3] [%] | viability, T/C [4] [%] | viability, T/C [5] [%] | viability, T/C [6] [%] | viability, T/C [7] [%] | viability, T/C [11] [%] | viability, T/C [12] [%] | viability, T/C [17] [%] | viability, T/C [18] [%] | viability, T/C [23] [%] | viability, T/C [24] [%] | viability, T/C [29] [%] | viability, T/C [30] [%] | further results
1 | CC(C)n1nc(-c2ccc3oc(N)nc3c2)c2c(N)ncnc21 + C=CC(=O)N1CCN(c2nc(=O)n(-c3c(C)ccnc3C(C)C)c3nc(-c4c(O)cccc4F)c(F)cc23)C(C)C1 | 37 | 38 | 24 | 13.7 | 3.9 | 97.8 | 82.4 | 74.6 | 61 | 50.5 | 42.7 | 98.8 | 51.2 | 41.6 | 47.9 | 40.2 | 43.7 | 40.4 | 40.1 | 32.9 | viability, T/C [8]: 82.9%; viability, T/C [9]: 72.2%; viability, T/C [10]: 63.9%; viability, T/C [13]: 98.4%; viability, T/C [14]: 77.6%; viability, T/C [15]: 68.8%; viability, T/C [16]: 58.3%; viability, T/C [19]: 112%; viability, T/C [20]: 77.4%; viability, T/C [21]: 68.3%; viability, T/C [22]: 51.5%; viability, T/C [25]: 74.7%; viability, T/C [26]: 59%; viability, T/C [27]: 49.9%; viability, T/C [28]: 46.1%
2 | CC1(C)CCC(CN2CCN(c3ccc(C(=O)NS(=O)(=O)c4ccc(NCC5CCOCC5)c([N+](=O)[O-])c4)c(Oc4cnc5[nH]ccc5c4)c3)CC2)=C(c2ccc(Cl)cc2)C1 + C=CC(=O)N1CCN(c2nc(=O)n(-c3c(C)ccnc3C(C)C)c3nc(-c4c(O)cccc4F)c(F)cc23)C(C)C1 | 7090 | 7140 | 5360 | 9700 | 5480 |  |  |  |  | 111 | 118 |  | 117 | 114 | 122 | 117 | 109 | 120 | 91.1 | 68.7 | viability, T/C [31]: 114%; viability, T/C [32]: 108%; viability, T/C [33]: 91.2%; viability, T/C [34]: 32.3%; viability, T/C [35]: 111%; viability, T/C [36]: 114%; viability, T/C [37]: 89.3%; viability, T/C [38]: 33.8%; viability, T/C [39]: 118%; viability, T/C [40]: 112%; viability, T/C [41]: 72.8%; viability, T/C [42]: 23.1%; viability, T/C [43]: 113%; viability, T/C [44]: 114%; viability, T/C [45]: 80.8%; viability, T/C [46]: 49.2%; viability, T/C [47]: 76.9%; viability, T/C [48]: 77.8%; viability, T/C [49]: 65.3%; viability, T/C [50]: 33%
3 | COc1cc2nccc(Oc3ccc(NC(=O)C4(C(=O)Nc5ccc(F)cc5)CC4)cc3)c2cc1OC + C=CC(=O)N1CCN(c2nc(=O)n(-c3c(C)ccnc3C(C)C)c3nc(-c4c(O)cccc4F)c(F)cc23)C(C)C1 | > 10000 | > 10000 | > 10000 | > 10000 | 2400 |  |  |  |  | 123 | 125 |  | 124 | 117 | 118 | 122 | 117 | 122 | 75.6 | 72.2 | viability, T/C [31]: 142%; viability, T/C [32]: 113%; viability, T/C [33]: 81.4%; viability, T/C [34]: 75.6%; viability, T/C [35]: 117%; viability, T/C [36]: 126%; viability, T/C [37]: 90.4%; viability, T/C [38]: 77.7%; viability, T/C [39]: 114%; viability, T/C [40]: 126%; viability, T/C [41]: 86.4%; viability, T/C [42]: 77.6%; viability, T/C [43]: 123%; viability, T/C [44]: 106%; viability, T/C [45]: 78.6%; viability, T/C [46]: 77.7%; viability, T/C [47]: 62.3%; viability, T/C [48]: 86.2%; viability, T/C [49]: 35.8%; viability, T/C [50]: 48.9%
4 | Cn1ncnc1[C@H]1c2n[nH]c(=O)c3cc(F)cc(c23)N[C@@H]1c1ccc(F)cc1 + C=CC(=O)N1CCN(c2nc(=O)n(-c3c(C)ccnc3C(C)C)c3nc(-c4c(O)cccc4F)c(F)cc23)C(C)C1 | > 100 | > 100 | > 100 | > 100 | > 100 | 105 | 107 | 103 | 110 | 111 | 92 | 118 | 108 | 94 | 104 | 96.8 | 108 | 105 | 82.2 | 78.4 | viability, T/C [8]: 115%; viability, T/C [9]: 113%; viability, T/C [10]: 113%; viability, T/C [13]: 111%; viability, T/C [14]: 106%; viability, T/C [15]: 117%; viability, T/C [16]: 107%; viability, T/C [19]: 106%; viability, T/C [20]: 108%; viability, T/C [21]: 106%; viability, T/C [22]: 105%; viability, T/C [25]: 89.3%; viability, T/C [26]: 97.4%; viability, T/C [27]: 93%; viability, T/C [28]: 86%
